Consider 18 molecules from patent US8455475B2 (Gruenenthal GmbH, priority 2009, dated 2013).

The target in this assay is T1, rat B1R (bradykinin receptor 1) (Rattus norvegicus, UniProt P97583).
T1 construct: expressed in transfected cells; host or cells: CHO K1 cells
T1 sequence (P97583 1-337): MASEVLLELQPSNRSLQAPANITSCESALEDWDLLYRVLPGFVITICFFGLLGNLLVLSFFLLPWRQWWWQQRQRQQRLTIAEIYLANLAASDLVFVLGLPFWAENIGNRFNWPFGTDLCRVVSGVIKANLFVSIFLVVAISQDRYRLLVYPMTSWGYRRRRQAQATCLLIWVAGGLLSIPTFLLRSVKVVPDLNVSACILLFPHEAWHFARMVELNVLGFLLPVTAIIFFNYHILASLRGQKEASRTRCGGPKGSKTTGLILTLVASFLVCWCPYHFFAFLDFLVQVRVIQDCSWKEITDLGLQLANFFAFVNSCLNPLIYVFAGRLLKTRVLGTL
Nature of the assay: FLIPR Ca2+ assay (Fluo-4) on CHO K1 cells stably transfected with the B1R gene of the rat (rB1R cells): % inhibition at 10 μM / IC50, agonist Des-Arg9-bradykinin. The conditions noted are these: for inhibition at 10 µM: CHO-K1, rat B1R. It is filed as cell-based. On the procedure: The agonistic or antagonistic action of substances can be quantified on the bradykinin receptor 1 (B1R) of the human and rat species with ectopically expressing cell lines (CHO K1 cells) and with the aid of a Ca^2+-sensitive dyestuff (Fluo-4) in a fluorescent imaging plate reader (FLIPR). The figure in % activation is based on the Ca^2+ signal after addition of Lys-Des-Arg^9-bradykinin (0.5 nM) or Des-Arg^9-bradykinin (100 nM). Antagonists lead to a suppression of the Ca^2+ inflow after addition of the agonist. % inhibition compared with the maximum achievable inhibition is stated.
The agonistic or antagonistic action of substances can be determined on the bradykinin receptor 1 (B1R) of the human and rat species with the following assay. In accordance with this assay, the Ca^2+ inflow through the channel is quantified with the aid of a Ca^2+-sensitive dyestuff (type Fluo-4, Molecular Probes Europe BV, Leiden, Holland) in a fluorescent imaging plate reader (FLIPR, Molecular Devices, Sunnyvale, USA).
Chinese hamster ovary cells (CHO K1 cells) transfected stably with the human B1R gene (hB1R cells) or the B1R gene of the rat (rB1R cells) are used. For functional studies, these cells are plated out on black 96-well plates with a clear base (BD Biosciences, Heidelberg, Germany or Greiner, Frickenhausen, Germany) in a density of 20,000-35,000 cells/well. The cells are left overnight at 37° C. and 5% CO2 in culture medium (hB1R cells: Nutrient Mixture Ham's F12, Gibco Invitrogen GmbH, Karlsruhe, Germany or DMEM, Sigma-Aldrich, Taufkirchen, Germany; rB1R cells: D-MEM/F12, Gibco Invitrogen GmbH, Karlsruhe, Germany) with 10 vol. % FBS (foetal bovine serum, Gibco Invitrogen GmbH, Karlsruhe, Germany or PAN Biotech GmbH, Aidenbach, Germany). On the following day, the cells are loaded for 60 min at 37° C. with 2.13 μM Fluo-4 (Molecular Probes Europe BV, Leiden Holland) in HBSS buffer (Hank's buffered saline solution, Gibco Invitrogen GmbH, Karlsruhe, Germany) with 2.5 mM probenecid (Sigma-Aldrich, Taufkirchen, Germany) and 10 mM HEPES (Sigma-Aldrich, Taufkirchen, Germany). The plates are then washed 2× with HBSS buffer, and HBSS buffer which additionally contains 0.1% BSA (bovine serum albumin; Sigma-Aldrich, Taufkirchen, Germany), 5.6 mM glucose and 0.05% gelatine (Merck KGaA, Darmstadt, Germany) is added. After a further incubation of 20 minutes at room temperature, the plates are inserted into the FLIPR for the Ca^2+ measurement. Alternatively, the plates are washed with buffer A (15 mM HEPES, 80 mM NaCl, 5 mM KCl, 1.2 mM CaCl2, 0.7 mM MgSO4, 2 g/l glucose, 2.5 mM probenecid), buffer A is added and the plates are loaded with 2.5 μM Fluo-4 and 0.025% Pluronic F127 (Sigma-Aldrich, Taufkirchen, Germany). Thereafter, the cells are washed 2× with buffer A and incubated for 30 minutes at room temperature with buffer A, which additionally contains 0.05% BSA and 0.05% gelatine, and thereafter inserted into the FLIPR for the Ca^2+ measurement. The Ca^2+-dependent fluorescence is measured here before and after addition of substances (λex=488 nm, λem=540 nm). Quantification is by measurement of the highest fluorescence intensity (FC, fluorescence counts) over time.
The FLIPR protocol consists of 2 additions of substance. Test substances (10 μM) are first pipetted on to the cells and the Ca^2+ inflow is compared with the control (hB1R: Lys-Des-Arg^9-bradykinin>=50 nM; rB1R: Des-Arg^9-bradykinin 10 μM). This gives the result in % activation based on the Ca^2+ signal after addition of Lys-Des-Arg^9-bradykinin (>=50 nM) or Des-Arg^9-bradykinin (10 μM). After incubation for 10-20 minutes, Lys-Des-Arg^9-bradykinin (hB1R) or Des-Arg^9-bradykinin (rB1R) in the concentration of the EC80 is applied and the inflow of Ca^2+ is likewise determined. Antagonists lead to a suppression of the Ca^2+ inflow. % inhibition compared with the maximum achievable inhibition is calculated.
For determination of the IC50 value, the substances are added in various concentrations. […]

With `O=C(c1ccc2c(c1)C(NS(=O)(=O)c1cccc(C(F)(F)F)c1)CC2)N1CCC2(CC1)CCN(c1ccncc1)C2` (stereo not drawn) [IND_CC-329, N-[6-(2-Pyridin-4-yl-2,8-diazaspiro[4.5]decane-8-carbonyl)-2,3-dihydro-1H-inden-1-yl]-3-(trifluoromethyl)-benzenesulfonic acid amide], the inhibition (commonly the drop in the measured response relative to a control, in per cent) at 10 µM was determined as 97%. For the molecule `O=C(NC1CCc2ccc(C(=O)N3CCC4(CCN(CCCc5cccc(F)c5)CC4)CC3)cc21)c1cccc(Cl)c1Cl` (stereo not drawn) [IND_CC-759, 2,3-Dichloro-N-[6-[9-[3-(3-fluorophenyl)-propyl]-3,9-diazaspiro[5.5]undecane-3-carbonyl]-2,3-dihydro-1H-inden-1-yl]-benzamide], the inhibition at 10 µM came to 78%.

Take `COc1ccc(CN2CCC3(CC2)CCN(C(=O)c2ccc4c(c2)C(NC(=O)c2ccccc2Cl)CC4)C3)cc1F` (stereo not drawn) [IND_CC-545, 2-Chloro-N-[6-[8-[(3-fluoro-4-methoxy-phenyl)-methyl]-2,8-diazaspiro[4.5]decane-2-carbonyl]-2,3-dihydro-1H-inden-1-yl]-benzamide]: the inhibition at 10 µM came to 105%.

`O=C(NC1CCc2ccc(C(=O)N3CCC4(CCN(Cc5ccc6ncccc6c5)CC4)CC3)cc21)c1cc(Cl)ccc1F` (stereo not drawn) [IND_CC-677, 5-Chloro-2-fluoro-N-[6-[9-(quinolin-6-yl-methyl)-3,9-diazaspiro[5.5]undecane-3-carbonyl]-2,3-dihydro-1H-inden-1-yl]-benzamide]: the inhibition at 10 µM was 72%. In the case of `CN(C1CCc2ccc(C(=O)N3CCC4(CC3)CCN(c3ccncc3)CC4)cc21)S(=O)(=O)Cc1cccc(C(F)(F)F)c1` (stereo not drawn) [IND_CC-390, N-Methyl-N-[6-(9-pyridin-4-yl-3,9-diazaspiro[5.5]undecane-3-carbonyl)-2,3-dihydro-1H-inden-1-yl]-1-[3-(trifluoromethyl)phenyl]-methanesulfonic acid amide], the inhibition at 10 µM is 100%.

In the case of `Cc1cccc(Cl)c1C(=O)NC1CCc2ccc(C(=O)N3CCC4(CCN(Cc5ccccc5C#N)CC4)C3)cc21` (stereo not drawn) [IND_CC-733, 2-Chloro-N-[6-[8-[(2-cyano-phenyl)-methyl]-2,8-diazaspiro[4.5]decane-2-carbonyl]-2,3-dihydro-1H-inden-1-yl]-6-methyl-benzamide], the inhibition at 10 µM worked out at 83%. On to `O=C(NC1CCc2ccc(C(=O)N3CCC4(CCN(Cc5ccncc5)CC4)CC3)cc21)c1ccccc1Cl` (stereo not drawn) [IND_CC-510, 2-Chloro-N-[6-[9-(pyridin-4-yl-methyl)-3,9-diazaspiro[5.5]undecane-3-carbonyl]-2,3-dihydro-1H-inden-1-yl]-benzamide], for which, under “rat B1R, 10 µM”, the “% Inhibition (rat B1R) at 10 μM” value amounted to 95%. With `Cc1cccc(Cl)c1S(=O)(=O)NC1CCc2ccc(C(=O)N3CCC4(CC3)CCN(c3ccc(C(F)(F)F)cc3)CC4)cc21` (stereo not drawn) [IND_CC-239, 2-Chloro-6-methyl-N-[6-[9-[4-(trifluoromethyl)-phenyl]-3,9-diazaspiro[5.5]-undecane-3-carbonyl]-2,3-dihydro-1H-inden-1-yl]-benzenesulfonic acid amide], the inhibition at 10 µM was 71%. The same measure, in the same setting: in the case of `Cc1cccc(Cl)c1C(=O)NC1CCc2ccc(C(=O)N3CCC4(CCN(CCCc5ccc(F)cc5)CC4)C3)cc21` (stereo not drawn) [IND_CC-771, 2-Chloro-N-[6-[8-[3-(4-fluorophenyl)-propyl]-2,8-diazaspiro[4.5]decane-2-carbonyl]-2,3-dihydro-1H-inden-1-yl]-6-methyl-benzamide] it was 108%. The same measure, in the same setting: in the case of `N#Cc1ccccc1C(=O)NC1CCc2ccc(C(=O)N3CCC4(CC3)CCN(c3ccc(C(F)(F)F)cc3)CC4)cc21` (stereo not drawn) [IND_CC-235, 2-Cyano-N-[6-[9-[4-(trifluoromethyl)-phenyl]-3,9-diazaspiro[5.5]undecane-3-carbonyl]-2,3-dihydro-1H-inden-1-yl]-benzamide] it was 89%. The same measure, in the same setting: in the case of `N#Cc1ccc(CN2CCC3(CC2)CCN(C(=O)c2ccc4c(c2)C(NC(=O)c2sccc2Cl)CC4)C3)cc1` (stereo not drawn) [IND_CC-569, 3-Chloro-N-[6-[8-[(4-cyano-phenyl)-methyl]-2,8-diazaspiro[4.5]decane-2-carbonyl]-2,3-dihydro-1H-inden-1-yl]-thiophene-2-carboxylic acid amide] it was 52%. Regarding `Cn1cncc1CN1CCC2(CC1)CCN(C(=O)c1ccc3c(c1)C(N(C(=O)c1ccccc1Cl)C1CC1)CC3)C2` (stereo not drawn) [IND_CC-536, 2-Chloro-N-cyclopropyl-N-[6-[8-[(3-methyl-3H-imidazol-4-yl)-methyl]-2,8-diazaspiro[4.5]decane-2-carbonyl]-2,3-dihydro-1H-inden-1-yl]-benzamide], the inhibition at 10 µM amounted to 54%. In the case of `CN(C1CCc2ccc(C(=O)N3CCC4(CC3)CCN(c3ccncc3)CC4)cc21)S(=O)(=O)c1c(Cl)cc(Cl)cc1Cl` (stereo not drawn) [IND_CC-406, 2,4,6-Trichloro-N-methyl-N-[6-(9-pyridin-4-yl-3,9-diazaspiro[5.5]undecane-3-carbonyl)-2,3-dihydro-1H-inden-1-yl]-benzenesulfonic acid amide], the inhibition at 10 µM stood at 102%. Consider `N#Cc1cccc(CN2CCC3(CC2)CCN(C(=O)c2ccc4c(c2)C(NC(=O)c2c(F)cccc2Cl)CC4)CC3)c1` (stereo not drawn) [IND_CC-800, 2-Chloro-N-[6-[9-[(3-cyano-phenyl)-methyl]-3,9-diazaspiro[5.5]undecane-3-carbonyl]-2,3-dihydro-1H-inden-1-yl]-6-fluoro-benzamide], for which the inhibition at 10 µM worked out at 97%. In the case of `CN(C(=O)C1CCCC1)C1CCc2ccc(C(=O)N3CCC4(CC3)CCN(c3ccncc3)CC4)cc21` (stereo not drawn) [IND_CC-392, N-Methyl-N-[6-(9-pyridin-4-yl-3,9-diazaspiro[5.5]undecane-3-carbonyl)-2,3-dihydro-1H-inden-1-yl]-cyclopentanecarboxylic acid amide], the inhibition at 10 µM was determined as 102%. Same read-out and setting: under `O=C(c1ccc2c(c1)C(NS(=O)(=O)c1c(Cl)cc(C(F)(F)F)cc1Cl)CC2)N1CCC2(CCN(c3ccncc3)CC2)C1` (stereo not drawn) [IND_CC-404, 2,6-Dichloro-N-[6-(8-pyridin-4-yl-2,8-diazaspiro[4.5]decane-2-carbonyl)-2,3-dihydro-1H-inden-1-yl]-4-(trifluoromethyl)-benzenesulfonic acid amide] stands 92%.

Turning to `Cc1cccc(C(=O)NC2CCc3ccc(C(=O)N4CCC5(CCN(c6ccncc6)CC5)C4)cc32)c1C` (stereo not drawn) [IND_CC-389, 2,3-Dimethyl-N-[6-(8-pyridin-4-yl-2,8-diazaspiro[4.5]decane-2-carbonyl)-2,3-dihydro-1H-inden-1-yl]-benzamide], the inhibition at 10 µM came out at 103%. As to `COc1ccc(C(=O)NC2CCc3ccc(C(=O)N4CCC5(CCN(c6ccncc6)CC5)C4)cc32)c(F)c1` (stereo not drawn) [IND_CC-313, 2-Fluoro-4-methoxy-N-[6-(8-pyridin-4-yl-2,8-diazaspiro[4.5]decane-2-carbonyl)-2,3-dihydro-1H-inden-1-yl]-benzamide], the inhibition at 10 µM was 95%.
